Experimental data reported in patent US10377709B2, “Carboxamide derivatives and the use thereof as medicaments for the treatment of hepatitis B” (Janssen Sciences Ireland UC, priority 2013, dated 2019).

Assays:
HBV [1] = test: Anti-HBV activity in HepG2.2.15 stable transfected cell line (HBV DNA from secreted virions, realtime PCR); type: cell-based, Hepatitis B virus; conditions: HepG2.2.15 cells, 6 days of treatment, HBV DNA from secreted virions by realtime PCR
HBV [2] = test: Anti-HBV activity in HepG2.117 inducible HBV producing cell line (intracellular HBV DNA, realtime PCR); type: cell-based, Hepatitis B virus; conditions: HepG2.117 cells (Tet-off), 3 days of treatment, intracellular HBV DNA by realtime PCR
HepG2 cells = test: Cytotoxicity in HepG2 cells (Resazurin assay); type: cell-based; conditions: incubated 4 days, viability by Resazurin assay
[3] = Cytotoxicity in HepG2 cells (Resazurin assay); type: cell-based; conditions: human, incubated 4 days, viability by Resazurin assay
[4] = Hepatitis B virus, HepG2.2.15, 144 h
[5] = Hepatitis B virus, HepG2.117, 72 h

SMILES | EC50 (HBV [1]) [nM] | EC50 (HBV [2]) [nM] | CC50 (HepG2 cells) [nM] | EC50 (HBV [1]; [4]) [nM] | EC50 (HBV [2]; [5]) [nM] | CC50 at 4 days [3] [nM]
Cc1cc(NC(=O)C2CC(C)N(C(=O)C(=O)NC3(C)COC3)C2)ccc1F (single isomer, unassigned) [Compound 17b, N-(4-fluoro-3-methylphenyl)-5-methyl-1-(2-((3-methyloxetan-3-yl)amino)-2-oxoacetyl)pyrrolidine-3-carboxamide] | 918 | 796 | > 25000 |  |  | 
Cc1cc(NC(=O)C2CC(C)N(C(=O)C(=O)NC3(C)COC3)C2)ccc1F (single isomer, unassigned) [Compound 17c, N-(4-fluoro-3-methylphenyl)-5-methyl-1-(2-((3-methyloxetan-3-yl)amino)-2-oxoacetyl)pyrrolidine-3-carboxamide] | > 1000 | > 1000 | > 25000 |  |  | 
CC(C)NC(=O)C(=O)N1CC[C@H](C(=O)Nc2ccc(F)c(C(F)(F)F)c2)C1 [Compound 23, (3S)-N-[4-fluoro-3-(trifluoromethyl)phenyl]-1-[2-(isopropylamino)-2-oxo-acetyl]pyrrolidine-3-carboxamide] |  |  |  | 380 | 575 | > 25000
CC[C@@H](C)NC(=O)C(=O)N1CC[C@H](C(=O)Nc2ccc(F)c(C(F)(F)F)c2)C1 [Compound 24, (3S)-N-[4-fluoro-3-(trifluoromethyl)phenyl]-1-[2-[[(1R)-1-methylpropyl]-amino]-2-oxo-acetyl]pyrrolidine-3-carboxamide] |  |  |  | 134 | 384 | > 25000
O=C(NC1(C(F)(F)F)CC1)C(=O)N1CC[C@H](C(=O)Nc2ccc(F)c(Cl)c2)C1 [Compound 25, (3S)-N-(3-chloro-4-fluoro-phenyl)-1-[2-oxo-2-[[1-(trifluoromethyl)cyclopropyl]amino]acetyl]pyrrolidine-3-carboxamide] |  |  |  | 42 | 31 | > 25000
C[C@H](NC(=O)C(=O)N1CC[C@H](C(=O)Nc2ccc(F)c(Cl)c2)C1)C(F)(F)F [Compound 26, (3S)-N-(3-chloro-4-fluoro-phenyl)-1-[2-oxo-2-[[(1S)-2,2,2-trifluoro-1-methyl-ethyl]amino]acetyl]pyrrolidine-3-carboxamide] |  |  |  | 168 | 122 | > 25000
CC(C)NC(=O)C(=O)N1CCC(C(=O)Nc2ccc(F)c(C#N)c2)[C@@H]1C (stereo partly drawn) [Compound 27, (2S)-N-(3-cyano-4-fluoro-phenyl)-1-[2-(isopropylamino)-2-oxo-acetyl]-2-methyl-pyrrolidine-3-carboxamide] |  |  |  | 119 | 126 | > 25000
CC(C)NC(=O)C(=O)N1CCC(C(=O)Nc2ccc(F)c(Cl)c2F)[C@@H]1C (stereo partly drawn) [Compound 28, (2S)-N-(3-chloro-2,4-difluoro-phenyl)-1-[2-(isopropylamino)-2-oxo-acetyl]-2-methyl-pyrrolidine-3-carboxamide] |  |  |  | 50 | 83 | > 25000
CC(C)NC(=O)C(=O)N1CCC(C(=O)Nc2cc(F)c(F)c(Cl)c2)[C@@H]1C (stereo partly drawn) [Compound 29, (2S)-N-(3-chloro-4,5-difluoro-phenyl)-1-[2-(isopropylamino)-2-oxo-acetyl]-2-methyl-pyrrolidine-3-carboxamide] |  |  |  | 18 | 48 | > 25000
C[C@H](NC(=O)C(=O)N1CC[C@H](C(=O)Nc2ccc(F)c(C(F)F)c2)C1)C(F)(F)F [Compound 30, (3S)-N-[3-(difluoromethyl)-4-fluoro-phenyl]-1-[2-oxo-2-[[(1 S)-2,2,2-trifluoro-1-methyl-ethyl]amino]acetyl]pyrrolidine-3-carboxamide] |  |  |  | 161 | 125 | > 25000
CC(C)NC(=O)C(=O)N1CC[C@H](C(=O)Nc2ccc(F)c(C(F)F)c2)C1 [Compound 31, (3S)-N-[3-(difluoromethyl)-4-fluoro-phenyl]-1-[2-(isopropylamino)-2-oxo-acetyl]pyrrolidine-3-carboxamide] |  |  |  | 134 | 143 | > 25000
